Results reported in PubChem BioAssay (NCI).
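GI50 marks 50% less growth. TGI marks complete inhibition of growth.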

How the values were obtained:
Assay in all cases: NCI-60 cell line screen, 384-well format
[1] = test system: 786-0 renal
[2] = test system: A498 renal
[3] = test system: A549 NSCLC
[4] = test system: ACHN renal
[5] = test system: BT-549 breast
[6] = test system: CAKI-1 renal
[7] = test system: CCRF-CEM leukemia
[8] = test system: COLO 205 colon
[9] = test system: DU-145 prostate
[10] = test system: HCC-2998 colon
[11] = test system: HCT-116 colon
[12] = test system: HCT-15 colon
[13] = test system: HL-60(TB) leukemia
[14] = test system: HOP-62 NSCLC
[15] = test system: HOP-92 NSCLC
[16] = test system: HT29 colon
[17] = test system: IGROV1 ovarian
[18] = test system: K-562 leukemia
[19] = test system: KM12 colon
[20] = test system: LOX IMVI melanoma
[21] = test system: M14 melanoma
[22] = test system: MALME-3M melanoma
[23] = test system: MCF7 breast
[24] = test system: MDA-MB-231 breast
[25] = test system: MDA-MB-435 melanoma
[26] = test system: MDA-MB-468 breast
[27] = test system: MOLT-4 leukemia
[28] = test system: NCI-H226 lung
[29] = test system: NCI-H23 lung
[30] = test system: NCI-H322M lung
[31] = test system: NCI-H460 NSCLC
[32] = test system: NCI-H522 lung
[33] = test system: NCI/ADR-RES ovarian
[34] = test system: OVCAR-3 ovarian
[35] = test system: OVCAR-4 ovarian
[36] = test system: OVCAR-5 ovarian
[37] = test system: OVCAR-8 ovarian
[38] = test system: PC-3 prostate
[39] = test system: RXF 393 renal
[40] = test system: SF-268 CNS
[41] = test system: SF-295 CNS
[42] = test system: SF-539 CNS
[43] = test system: SK-MEL-2 melanoma
[44] = test system: SK-MEL-28 melanoma
[45] = test system: SK-MEL-5 melanoma
[46] = test system: SK-OV-3 ovarian
[47] = test system: SN12C renal
[48] = test system: SNB-19 CNS
[49] = test system: SR leukemia
[50] = test system: SW-620 colon
[51] = test system: T-47D breast
[52] = test system: TK-10 renal
[53] = test system: U251 glioblastoma
[54] = test system: UACC-257 melanoma
[55] = test system: UACC-62 melanoma
[56] = test system: UO-31 renal
[57] = test system: RPMI-8226 leukemia

CCN(C(=O)c1cc(F)ccc1Oc1cncnc1N1CC2(CCN(CC3CCC(NS(=O)(=O)CC)CC3)CC2)C1)C(C)C (stereo unspecified)
GI50 [1]: > 100 µM
TGI [1]: > 100 µM
GI50 [2]: 77.3 µM
TGI [2]: > 100 µM
GI50 [3]: > 100 µM
TGI [3]: > 100 µM
GI50 [4]: > 100 µM
TGI [4]: > 100 µM
GI50 [5]: 92.7 µM
TGI [5]: > 100 µM
GI50 [6]: > 100 µM
TGI [6]: > 100 µM
GI50 [7]: 10.1 µM
TGI [7]: 43.1 µM
GI50 [8]: 78.3 µM
TGI [8]: > 100 µM
GI50 [9]: > 100 µM
TGI [9]: > 100 µM
GI50 [10]: 2.94 µM
TGI [10]: > 100 µM
GI50 [11]: > 100 µM
TGI [11]: > 100 µM
GI50 [12]: > 100 µM
TGI [12]: > 100 µM
GI50 [13]: > 100 µM
TGI [13]: > 100 µM
GI50 [14]: > 100 µM
TGI [14]: > 100 µM
GI50 [15]: 2.2 µM
TGI [15]: 41.5 µM
GI50 [16]: > 100 µM
TGI [16]: > 100 µM
GI50 [17]: > 100 µM
TGI [17]: > 100 µM
GI50 [18]: > 100 µM
TGI [18]: > 100 µM
GI50 [19]: > 100 µM
TGI [19]: > 100 µM
GI50 [20]: > 100 µM
TGI [20]: > 100 µM
GI50 [21]: > 100 µM
TGI [21]: > 100 µM
GI50 [22]: > 100 µM
TGI [22]: > 100 µM
GI50 [23]: > 100 µM
TGI [23]: > 100 µM
GI50 [24]: 18.7 µM
TGI [24]: > 100 µM
GI50 [25]: > 100 µM
TGI [25]: > 100 µM
GI50 [26]: 65.5 µM
TGI [26]: > 100 µM
GI50 [27]: 1.17 µM
TGI [27]: 3.67 µM
GI50 [28]: > 100 µM
TGI [28]: > 100 µM
GI50 [29]: > 100 µM
TGI [29]: > 100 µM
GI50 [30]: > 100 µM
TGI [30]: > 100 µM
GI50 [31]: > 100 µM
TGI [31]: > 100 µM
GI50 [32]: 92.3 µM
TGI [32]: > 100 µM
GI50 [33]: > 100 µM
TGI [33]: > 100 µM
GI50 [34]: 63.5 µM
TGI [34]: > 100 µM
GI50 [35]: 82.6 µM
TGI [35]: > 100 µM
GI50 [36]: > 100 µM
TGI [36]: > 100 µM
GI50 [37]: > 100 µM
TGI [37]: > 100 µM
GI50 [38]: > 100 µM
TGI [38]: > 100 µM
GI50 [39]: 0.753 µM
TGI [39]: > 100 µM
GI50 [40]: > 100 µM
TGI [40]: > 100 µM
GI50 [41]: > 100 µM
TGI [41]: > 100 µM
GI50 [42]: > 100 µM
TGI [42]: > 100 µM
GI50 [43]: 24.5 µM
TGI [43]: > 100 µM
GI50 [44]: > 100 µM
TGI [44]: > 100 µM
GI50 [45]: > 100 µM
TGI [45]: > 100 µM
GI50 [46]: > 100 µM
TGI [46]: > 100 µM
GI50 [47]: > 100 µM
TGI [47]: > 100 µM
GI50 [48]: > 100 µM
TGI [48]: > 100 µM
GI50 [49]: 81.2 µM
TGI [49]: > 100 µM
GI50 [50]: > 100 µM
TGI [50]: > 100 µM
GI50 [51]: 72.3 µM
TGI [51]: > 100 µM
GI50 [52]: > 100 µM
TGI [52]: > 100 µM
GI50 [53]: > 100 µM
TGI [53]: > 100 µM
GI50 [54]: > 100 µM
TGI [54]: > 100 µM
GI50 [55]: > 100 µM
TGI [55]: > 100 µM
GI50 [56]: > 100 µM
TGI [56]: > 100 µM

Cc1c(COc2cc(OCc3cccc(C#N)c3)c(CN3C[C@H](O)C[C@@H]3C(=O)O)cc2Cl)cccc1-c1ccc2c(c1)OCCO2
GI50 [1]: 3.82 µM
TGI [1]: 13.7 µM
GI50 [2]: 3.27 µM
TGI [2]: 11.7 µM
GI50 [3]: 10.6 µM
TGI [3]: 22.5 µM
GI50 [4]: 10.4 µM
TGI [4]: 22.3 µM
GI50 [5]: 3.4 µM
TGI [5]: 12 µM
GI50 [6]: 6.69 µM
TGI [6]: 18.8 µM
GI50 [7]: 1.81 µM
TGI [7]: 3.26 µM
GI50 [8]: 4.51 µM
TGI [8]: 14.6 µM
GI50 [9]: 7.96 µM
TGI [9]: 20.5 µM
GI50 [10]: 1.47 µM
TGI [10]: 3.59 µM
GI50 [11]: 2.81 µM
TGI [11]: 7.43 µM
GI50 [12]: 4.4 µM
TGI [12]: 14.8 µM
GI50 [13]: 2.1 µM
TGI [13]: 3.54 µM
GI50 [14]: 3.97 µM
TGI [14]: 15.4 µM
GI50 [15]: 2.4 µM
TGI [15]: 6 µM
GI50 [16]: 2.42 µM
TGI [16]: 5.77 µM
GI50 [17]: 3.93 µM
TGI [17]: 14.2 µM
GI50 [18]: 3.46 µM
TGI [18]: 12.1 µM
GI50 [19]: 3.38 µM
TGI [19]: 10.9 µM
GI50 [20]: 2.68 µM
TGI [20]: 6.63 µM
GI50 [21]: 3.64 µM
TGI [21]: 11.6 µM
GI50 [22]: 5.72 µM
TGI [22]: 17.5 µM
GI50 [23]: 2.34 µM
TGI [23]: 6.63 µM
GI50 [24]: 3.23 µM
TGI [24]: 9.47 µM
GI50 [25]: 4.35 µM
TGI [25]: 14.2 µM
GI50 [26]: 2.7 µM
TGI [26]: 6.92 µM
GI50 [27]: 1.77 µM
TGI [27]: 3.16 µM
GI50 [28]: 2.6 µM
TGI [28]: 7.19 µM
GI50 [29]: 10.4 µM
TGI [29]: 22.2 µM
GI50 [30]: 7.65 µM
TGI [30]: 20.2 µM
GI50 [31]: 3.45 µM
TGI [31]: 12.4 µM
GI50 [32]: 2.73 µM
TGI [32]: 9.61 µM
GI50 [33]: 77.7 µM
TGI [33]: > 100 µM
GI50 [34]: 2.37 µM
TGI [34]: 6.1 µM
GI50 [35]: 4.03 µM
TGI [35]: 16 µM
GI50 [36]: 15 µM
TGI [36]: 28.2 µM
GI50 [37]: 4.21 µM
TGI [37]: 15.5 µM
GI50 [38]: 3.58 µM
TGI [38]: 10.3 µM
GI50 [57]: 1.67 µM
TGI [57]: 3.04 µM
GI50 [39]: 1.41 µM
TGI [39]: 3.5 µM
GI50 [40]: 3.98 µM
TGI [40]: 14.5 µM
GI50 [41]: 3.09 µM
TGI [41]: 8.92 µM
GI50 [42]: 3.25 µM
TGI [42]: 11.6 µM
GI50 [43]: 1.93 µM
TGI [43]: 3.76 µM
GI50 [44]: 2.71 µM
TGI [44]: 7.55 µM
GI50 [45]: 1.72 µM
TGI [45]: 4.31 µM
GI50 [46]: 5.17 µM
TGI [46]: 16.3 µM
GI50 [47]: 5.41 µM
TGI [47]: 16.4 µM
GI50 [48]: 4.11 µM
TGI [48]: 13.5 µM
GI50 [49]: 1.69 µM
TGI [49]: 3.06 µM
GI50 [50]: 5.44 µM
TGI [50]: 17 µM
GI50 [51]: 2.97 µM
TGI [51]: 12.9 µM
GI50 [52]: 3.11 µM
TGI [52]: 9.29 µM
GI50 [53]: 3.38 µM
TGI [53]: 10.6 µM
GI50 [54]: 2.63 µM
TGI [54]: 8.02 µM
GI50 [55]: 2.3 µM
TGI [55]: 5.05 µM
GI50 [56]: 1.93 µM
TGI [56]: 3.79 µM
